Data: ChEMBL document CHEMBL1201862, “PubChem BioAssay data set” (2004)
Active and inactive are the calls of the source.

Assays:
[1] = target: T1, 1-phosphatidylinositol 4,5-bisphosphate phosphodiesterase gamma-1 (Homo sapiens, UniProt P19174); assay: Counterscreen for inhibitors of phospholipase C isozymes (PLC-B3): Fluorescence-based biochemical high throughput dose response assay to identify inhibitors of phospholipase C isozymes (PLC-gamma1).
T1 sequence (P19174 whole entry): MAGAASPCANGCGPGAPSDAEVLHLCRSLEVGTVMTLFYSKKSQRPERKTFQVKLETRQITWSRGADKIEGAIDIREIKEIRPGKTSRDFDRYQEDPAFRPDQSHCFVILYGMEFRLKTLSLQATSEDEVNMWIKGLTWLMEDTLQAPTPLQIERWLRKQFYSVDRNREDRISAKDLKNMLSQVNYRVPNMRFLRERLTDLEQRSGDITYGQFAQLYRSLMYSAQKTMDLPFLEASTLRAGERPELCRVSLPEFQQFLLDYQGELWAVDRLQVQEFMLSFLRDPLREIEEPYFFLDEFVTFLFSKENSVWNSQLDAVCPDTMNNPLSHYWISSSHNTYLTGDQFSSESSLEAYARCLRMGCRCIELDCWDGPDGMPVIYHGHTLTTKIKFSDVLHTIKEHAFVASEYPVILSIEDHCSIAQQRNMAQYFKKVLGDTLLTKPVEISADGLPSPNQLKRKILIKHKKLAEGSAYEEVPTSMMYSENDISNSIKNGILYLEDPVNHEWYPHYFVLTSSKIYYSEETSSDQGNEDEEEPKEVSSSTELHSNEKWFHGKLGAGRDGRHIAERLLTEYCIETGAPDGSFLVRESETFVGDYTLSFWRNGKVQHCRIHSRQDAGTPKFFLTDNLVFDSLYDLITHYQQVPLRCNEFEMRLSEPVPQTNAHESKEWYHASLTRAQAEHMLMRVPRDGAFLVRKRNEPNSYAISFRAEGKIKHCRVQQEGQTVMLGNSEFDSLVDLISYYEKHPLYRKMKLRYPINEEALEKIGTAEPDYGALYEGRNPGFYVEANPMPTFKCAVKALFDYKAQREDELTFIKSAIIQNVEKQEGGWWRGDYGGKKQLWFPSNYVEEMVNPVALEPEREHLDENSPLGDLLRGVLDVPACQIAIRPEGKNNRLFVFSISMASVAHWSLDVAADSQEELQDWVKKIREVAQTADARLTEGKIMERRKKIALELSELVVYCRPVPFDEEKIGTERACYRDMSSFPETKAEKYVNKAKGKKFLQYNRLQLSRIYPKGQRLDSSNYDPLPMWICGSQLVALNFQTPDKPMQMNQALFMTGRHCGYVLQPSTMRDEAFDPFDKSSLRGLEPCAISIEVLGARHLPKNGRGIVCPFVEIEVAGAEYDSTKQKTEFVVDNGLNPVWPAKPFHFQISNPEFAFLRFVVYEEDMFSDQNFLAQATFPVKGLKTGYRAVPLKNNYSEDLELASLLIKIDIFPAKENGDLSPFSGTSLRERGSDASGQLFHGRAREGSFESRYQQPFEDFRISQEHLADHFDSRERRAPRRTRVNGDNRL

[2] = target: Large T antigen (Simian virus 40, UniProt P03070); format: functional, Betapolyomavirus macacae;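 further: Confirmatory-stage PubChem screen for compounds that inhibit SV40 T antigen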
[3] = target: T2, 1-phosphatidylinositol 4,5-bisphosphate phosphodiesterase beta-3 (Homo sapiens, UniProt Q01970); assay: Fluorescence-based biochemical high throughput dose response assay to identify inhibitors of phospholipase C isozymes (PLC-B3).
T2 sequence (Q01970 whole entry): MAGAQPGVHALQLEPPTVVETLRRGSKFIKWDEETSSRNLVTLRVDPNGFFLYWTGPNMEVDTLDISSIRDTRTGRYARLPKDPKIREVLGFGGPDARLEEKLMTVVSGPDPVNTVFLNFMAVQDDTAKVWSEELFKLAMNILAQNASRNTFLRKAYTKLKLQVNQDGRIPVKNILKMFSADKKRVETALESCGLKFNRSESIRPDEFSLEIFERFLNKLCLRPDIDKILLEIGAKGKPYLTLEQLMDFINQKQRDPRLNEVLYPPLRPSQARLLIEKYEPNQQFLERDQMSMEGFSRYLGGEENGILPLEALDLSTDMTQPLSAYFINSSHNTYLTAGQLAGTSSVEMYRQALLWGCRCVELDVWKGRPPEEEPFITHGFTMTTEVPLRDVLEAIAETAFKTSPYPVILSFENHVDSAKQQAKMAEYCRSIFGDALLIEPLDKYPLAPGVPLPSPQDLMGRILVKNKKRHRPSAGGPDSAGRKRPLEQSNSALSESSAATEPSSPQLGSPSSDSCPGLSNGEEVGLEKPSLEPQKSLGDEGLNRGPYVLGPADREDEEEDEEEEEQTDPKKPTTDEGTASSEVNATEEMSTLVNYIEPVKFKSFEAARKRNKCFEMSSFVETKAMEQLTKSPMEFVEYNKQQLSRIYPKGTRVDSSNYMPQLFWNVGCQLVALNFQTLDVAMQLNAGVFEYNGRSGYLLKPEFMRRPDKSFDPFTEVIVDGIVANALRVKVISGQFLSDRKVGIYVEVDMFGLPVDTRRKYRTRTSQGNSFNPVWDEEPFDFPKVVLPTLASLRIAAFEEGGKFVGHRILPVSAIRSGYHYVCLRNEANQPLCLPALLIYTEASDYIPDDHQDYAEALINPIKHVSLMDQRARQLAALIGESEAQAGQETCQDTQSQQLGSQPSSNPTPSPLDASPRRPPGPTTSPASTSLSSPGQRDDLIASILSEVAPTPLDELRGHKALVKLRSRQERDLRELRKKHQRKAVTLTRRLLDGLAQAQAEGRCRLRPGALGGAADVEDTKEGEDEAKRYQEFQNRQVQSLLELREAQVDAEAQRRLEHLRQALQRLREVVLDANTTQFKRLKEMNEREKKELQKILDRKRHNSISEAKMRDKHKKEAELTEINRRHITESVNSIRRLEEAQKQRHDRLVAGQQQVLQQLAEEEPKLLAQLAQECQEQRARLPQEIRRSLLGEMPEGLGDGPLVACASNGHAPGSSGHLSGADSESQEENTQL

[4] = test system: H9c2; assay: cells; format: functional, cell-based; conditions: Rattus norvegicus, H9c2, Myocardium;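 further: confirmatory concentration-response retest of ultra-high-throughput screening hits for modulation of myocardial damage; cell death induced by hydrogen peroxide oxidative stress; compound pretreatment for 60 min then peroxide exposure for 2 h; potency is for protecting the cells against peroxide damage rather than for killing them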
[5] = target: Eukaryotic translation initiation factor 4E (Mus musculus, UniProt P63073); assay: eIF4E–eIF4G protein interaction inhibitors, dose response, biochemical, TR-FRET (AID 855); format: functional;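 further: potency for disrupting eIF4E binding to eIF4GI seen as loss of FRET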
[6] = HEK293 cell cytotoxicity, dose response, cytotoxicity control, plate reader, cherry-picked samples (AID 743446); format: functional, cell-based
[7] = HepG2 cell cytotoxicity, dose response, cytotoxicity control, plate reader, cherry-pick, antagonist series (AID 743416); format: functional, cell-based
[8] = A549 cell cytotoxicity, dose response, cytotoxicity control, plate reader, cherry-pick, antagonist series (AID 743412); format: functional, cell-based
[9] = LGR2 antagonists, dose response, cell-based, HEK293, CRE-luciferase reporter, cherry pick, set 2 (AID 743343); format: functional;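 further: transfected cells were stimulated with diluted bursicon conditioned medium after compound addition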
[10] = MC4R antagonists, dose response, counter-screen for LGR2 antagonist project, cell-based, plate reader, cherry pick (AID 743444); format: functional;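 further: transfected HEK 293 cells stimulated with alpha-MSH peptide; potency of inhibitors of the alpha-MSH evoked signal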
[11] = HepG2 cell cytotoxicity, dose response, cytotoxicity control, plate reader, dry powder samples (AID 1159569); format: functional, cell-based;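 further: inhibitor potency with signal falling toward the positive control level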
[12] = P. falciparum ATP4 D1247Y mutant growth inhibitors, dose response, NITD609-resistant line, SYBR Green, dry powder (AID 1159571); format: functional, cell-based;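 further: parasites synchronized at ring stage by sorbitol before testing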
[13] = P. falciparum Dd2 growth inhibitors, dose response, SYBR Green, cherry-picked samples (AID 1159567); format: functional, cell-based
[14] = P. falciparum Dd2 growth inhibitors, dose response, SYBR Green, dry powder samples (AID 1159566); format: functional, cell-based;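 further: potency for growth inhibition with lower SYBR green DNA signal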
[15] = P. falciparum 3D7-ScDHODH growth inhibitors, dose response, SYBR Green, dry powder samples (AID 1159570); format: functional, cell-based;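 further: parasite growth measured after 72 hours of compound exposure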
[16] = HepG2 cell cytotoxicity, dose response, cytotoxicity control, cherry-picked samples (AID 1159577); format: functional, cell-based
[17] = P. falciparum Dd2 growth inhibitors, dose response, SYBR Green, dry powder samples, set 9 (AID 1159568); format: functional, cell-based

Sequence of Eukaryotic translation initiation factor 4E (P63073 whole entry): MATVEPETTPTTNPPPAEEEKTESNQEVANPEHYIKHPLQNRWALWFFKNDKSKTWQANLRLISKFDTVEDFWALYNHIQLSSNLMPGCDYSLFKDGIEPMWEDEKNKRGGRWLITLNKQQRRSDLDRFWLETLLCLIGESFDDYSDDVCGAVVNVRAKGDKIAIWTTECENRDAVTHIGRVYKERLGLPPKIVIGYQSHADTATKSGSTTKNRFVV
Sequence of Large T antigen (P03070 whole entry): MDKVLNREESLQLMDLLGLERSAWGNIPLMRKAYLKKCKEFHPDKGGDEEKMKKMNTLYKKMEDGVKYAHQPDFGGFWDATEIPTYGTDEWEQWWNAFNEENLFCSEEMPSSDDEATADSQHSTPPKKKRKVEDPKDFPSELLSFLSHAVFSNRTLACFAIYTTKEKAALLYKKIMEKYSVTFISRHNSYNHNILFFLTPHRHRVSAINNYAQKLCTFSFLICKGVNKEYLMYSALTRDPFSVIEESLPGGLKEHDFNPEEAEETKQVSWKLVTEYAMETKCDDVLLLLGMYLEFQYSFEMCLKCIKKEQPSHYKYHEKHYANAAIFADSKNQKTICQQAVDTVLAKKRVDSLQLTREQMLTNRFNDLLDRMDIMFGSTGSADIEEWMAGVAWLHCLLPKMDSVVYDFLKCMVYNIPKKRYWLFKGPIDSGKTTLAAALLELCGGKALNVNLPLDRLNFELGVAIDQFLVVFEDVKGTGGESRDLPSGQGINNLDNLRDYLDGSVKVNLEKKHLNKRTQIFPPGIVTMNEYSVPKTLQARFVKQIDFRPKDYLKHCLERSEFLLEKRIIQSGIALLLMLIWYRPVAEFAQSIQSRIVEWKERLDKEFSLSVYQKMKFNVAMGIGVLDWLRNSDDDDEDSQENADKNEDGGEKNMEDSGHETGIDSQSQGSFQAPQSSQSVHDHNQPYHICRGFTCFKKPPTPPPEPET

| Compound | AC50 [11] | AC50 [12] | AC50 [13] | AC50 [14] | AC50 [15] | AC50 [16] | other results |
| --- | --- | --- | --- | --- | --- | --- | --- |
| O=C1NC(=S)S/C1=C\c1ccc(SCc2ccccc2)o1 | – | – | – | – | – | – | IC50 [1]: > 122 µM (inactive); IC50 [2]: > 100 µM (active); IC50 [3]: > 122 µM (inactive) |
| O=C(COC(=O)c1ccccc1C(=O)OCC(=O)NCCc1c[nH]c2ccccc12)NCCc1c[nH]c2ccccc12 | – | – | – | – | – | – | IC50 [1]: > 123 µM (inactive); IC50 [4]: > 79 µM (inactive); IC50 [3]: > 123 µM (inactive) |
| CCNc1nc(NC(C)C)nc(Oc2ccc(OCCOc3ccccc3)nn2)n1 | – | – | – | – | – | – | IC50 [5]: > 64 µM (inactive) |
| C/N=C1/SC(CC(=O)NCCc2ccc(OC)c(OC)c2)C(=O)N1C (configuration not stated) | – | – | – | – | – | – | IC50 [1]: > 122 µM (inactive); IC50 [3]: > 122 µM (inactive) |
| COc1ccc(-c2coc3c(C(=O)Nc4cc(OC)c(OC)c(OC)c4)cccc23)c(C)c1 | – | – | – | – | – | – | AC50 [6]: 15.3 µM (active); AC50 [7]: 18.3 µM (active); AC50 [8]: 9.94 µM (active); AC50 [9]: 1.2 µM (active); AC50 [10]: 0.905 µM (active) |
| COc1ccccc1-c1ccc2c(c1)[C@@H]1[C@@H](CCN1C(=O)C1CCCCC1)[C@@H](CO)N2 | 11.1 µM (active) | 0.498 µM (active) | 1.74 µM (active) | 0.283 µM (active) | 0.488 µM (active) | – | – |
| CCCc1cn(CC[C@@H]2CC[C@@H](NS(=O)(=O)c3ccc(-c4ccccc4)cc3)[C@@H](CO)O2)nn1 | 33.6 µM (active) | 0.949 µM (active) | 1.45 µM (active) | 0.698 µM (active) | 1.6 µM (active) | > 39 µM (inactive) | – |
| COc1ccccc1S(=O)(=O)N(C)C[C@@H]1Oc2cc(/C=C/c3ccccc3)ccc2S(=O)(=O)N([C@H](C)CO)C[C@H]1C | 81.6 µM (active) | 0.215 µM (active) | 0.459 µM (active) | 0.22 µM (active) | 0.466 µM (active) | – | AC50 [17]: 0.443 µM (active) |
| OC[C@@H]1[C@H](c2ccc(-c3ccc(F)cc3)cc2)[C@@H](CNC2CCCC2)N1CCC(F)(F)F | 21.1 µM (active) | 0.241 µM (active) | 0.401 µM (active) | 0.113 µM (active) | 0.259 µM (active) | > 39 µM (inactive) | AC50 [17]: 0.491 µM (active) |
| CCCC#Cc1ccc2c(c1)O[C@@H](CN(C)Cc1ccncc1)[C@H](C)CN([C@@H](C)CO)S2(=O)=O | – | – | 3.85 µM (active) | – | – | > 39 µM (inactive) | – |
| O=C(Nc1ccc(F)cc1)N1CCCCN2[C@@H](CO)[C@H](c3ccc(C#Cc4ccccc4)cc3)[C@@H]2C1 | – | – | < 0.3 µM (active) | – | – | 7.42 µM (active) | – |
| COc1ccc(-c2nc(-c3ccccc3)no2)c(OC)c1 | – | – | – | – | – | – | AC50 [6]: 31.9 µM (active); AC50 [7]: 47.6 µM (active); AC50 [8]: 28.4 µM (active); AC50 [9]: 0.621 µM (active); AC50 [10]: 1.05 µM (active) |
